According to patent US20130005678A1, “Methods and Compositions for Treating or Ameliorating Cancer Using Gemcitabine-5'-Elaidate” (CLAVIS PHARMA ASA, priority 2010, published 2013):

Legend:
[1] = test system: human glioma cells U373; test: Antitumor activity in human glioma xenograft model U373 (subcutaneous); format: in vivo; settings: NCR mice, intraperitoneal
Source text: NCR mice are inoculated subcutaneously on Day 0 with human glioma cells U373. Treatment (intraperitoneal) starts on Day 7, either every third day or weekly.

[2] = test system: WiDr-LF cell line; test: Combination with pemetrexed under low folate conditions (WiDr-LF); format: cell-based, human; settings: MTT assay
Protocol: (§1) The cell lines A549 human NSCLC and WiDr human colon carcinoma are used to determine the combination index and also the effect of Gemcitabine-5′-elaidate on the cell cycle. A sulforhodamine B colorimetric assay is used to determine growth inhibition after 72 hours. Pemetrexed combinations are tested using the MTT assay. Combinations with pemetrexed are also tested in the WiDr-LF cell line, which are WiDr cells cultured under low folate conditions. The IC25 and IC50 values (inhibitory concentrations at 25% or 50%, respectively) are calculated. The IC25 value is used for combinations with serial dilutions of oxaliplatin or docetaxel, and the IC50 value is used for pemetrexed combinations. Median effect analysis is performed.

[3] = test system: WiDr cell line; test: Cell cycle analysis, flow cytometry with propidium iodide (WiDr); format: cell-based, human
Protocol: (§2) The effect on cell cycle is determined after 72 h exposure using flow cytometry combined with propidium iodide staining For cell cycle analysis, the concentration range is from 0.0005 μM to 0.05 μM in the A549 cell line and from 0.001 μM to 0.1 μM in the WiDr cell line. […] The effect on cell cycle is obtained also for the combinations with pemetrexed.

[4] = test system: A549 cell line; test: Cell cycle analysis, flow cytometry with propidium iodide (A549); format: cell-based, human
Protocol: as §2

[5] = test system: pancreatic cancer; test: Treatment of a pancreatic cancer patient with low hENT1 expression; format: in vivo, human
Protocol: An individual is diagnosed with pancreatic cancer. The patient provides a sample. The sample contains cancerous cells from the patient. The sample comes from a biopsy of the tumor, from circulating tumor cells, or from another source.
The sample is tested to determine the level of expression of hENT1 or another nucleoside transporter. The level is detected by immunohistochemistry, by determining the amount of mRNA relevant to hENT1 in the sample, or by other known means.
The testing of the sample takes place at a testing facility. The physician or their staff ships the sample to this facility. The sample is fixed or frozen for shipment. The sample is mixed with an antibody prior to shipment and analyzed when it arrives at the facility or the sample is shipped with no antibody added prior to shipment.
The nucleoside transporter level is compared to a control. The control is non-cancerous cells from the patient or is samples from another population. The control samples are analyzed at the same time as the sample or the analysis is based upon computer stored data where the comparison is done by using a rule based upon previously collected and characterized control data. This comparison allows for the classification of the sample as a “high,” “low,” or “normal,” sample based upon nucleoside transporter levels. […]

[6] = test system: THX, Lox, MOLT4, and MOLT4/C; test: Protection by dipyridamole from cell killing in vitro (FIG. 4); format: cell-based; settings: four cell lines
Source text: The number on the Y axis is the fold protection by dipyridamole from administration of gemcitabine and gemcitabine-5′-elaidate.

[7] = test system: WiDr human colon carcinoma; test: Combination study in vitro, growth inhibition, median effect analysis (WiDr); format: cell-based
Protocol: as §1

[8] = test system: human colon cancer Co5776; test: Antitumor activity in human colon xenograft Co5776; format: in vivo
Protocol: Fragments of human colon cancers Co5776 and Co6044 are implanted subcutaneously in NCR female mice (7-8 mice/group). Gemcitabine (120 mg/kg) and gemcitabine-5′-elaidic acid ester (40 mg/kg) are administered intraperitoneally, every third day for five times.
NCr female mice implanted subcutaneously with human colon carcinoma fragments, Co5776, are treated intraperitoneally. Two different schedules of gemcitabine-5′-elaidic acid ester are administered, once weekly times 2 (Days 11 and 18), and every third day times 5 (Days 11, 14, 17, 20, and 23). Antitumor activity of gemcitabine-5′-elaidic acid ester is similar for 150 mg/kg once weekly, administered twice or 40 mg/kg every third day administered five times.

[9] = test system: Co6044; test: Oral activity and schedule dependency in mice with Co6044; format: in vivo, human
Protocol: Oral administration of Gemcitabine-5′-elaidic acid ester and gemcitabine is tested in NCr:nu/nu mice for potential antitumor activity. Treatment is every third day repeated five times. In a follow-up experiment, the antitumor activity of oral and intraperitoneal treatment is compared in this colon cancer model (Co6044). The doses for oral treatment with Gemcitabine-5′-elaidic acid ester and gemcitabine are lower (20, 30, or 40 mg/kg) than in the previous experiment.
In this experiment, the antitumor activity of oral Gemcitabine-5′-elaidic acid ester in three different administration schedules is compared: every 3 days times 5, daily times 5, and once weekly times 2. Three doses are tested per schedule.

[10] = test system: WiDr cell line; test: Platinum accumulation in DNA (WiDr); format: cell-based, human; settings: oxaliplatin 200 μM combined with Gemcitabine-5′-elaidate 0.004 μM
Protocol: The effect on DNA platinum accumulation in DNA after exposure to oxaliplatin and oxaliplatin combined with Gemcitabine-5′-elaidate (oxaliplatin [200 μM] combined with Gemcitabine-5′-elaidate [0.004 μM]) is also determined.

[11] = 72 h exposure, 0.001 μM to 0.1 μM
[12] = 72 hours, sulforhodamine B assay

## CCCCCCCC/C=C/CCCCCCCC(=O)OC[C@H]1O[C@@H](n2ccc(N)nc2=O)C(F)(F)[C@@H]1O [gemcitabine-5′-elaidic acid ester]
[1]; dosed Days 7 and 14 (weekly)
  antitumor effect compared with gemcitabine: better than that of gemcitabine
[1]; every third day schedule from Day 7
  antitumor effect compared with gemcitabine: equal to gemcitabine
[2]
  antagonistic activity of combination with pemetrexed under low folate conditions: slightly reduced
[3]
  G2/M phase, combination with pemetrexed: only a marginal increase
[3]; [11]
  S phase accumulation: S phase accumulation at the two highest concentrations
  sub G1 accumulation: dose dependent sub G1 accumulation
[4]; 72 h exposure, 0.0005 μM to 0.05 μM
  effect on cell cycle: no effect on cell cycle
[4]; increased from 8.8%
  G0/G1 phase, combination with pemetrexed: 14.1%
[4]; increased from 23.1%
  S phase, combination with pemetrexed: 28.5%
[5]
  response to treatment: responds favorably
[6]
  protection by dipyridamole (blocking transporters) against cell killing: does not protect
[7]; [12]
  combination effect with docetaxel: antagonistic
  combination effect with oxaliplatin: synergistic
[7]; MTT assay
  combination effect with pemetrexed: Antagonistic activity
[8]; 40 mg/kg vs gemcitabine 120 mg/kg, intraperitoneally every third day five times
  activity compared with gemcitabine: similar
[8]; NCR female mice, intraperitoneally every third day five times, gemcitabine 120 mg/kg, gemcitabine-5′-elaidic acid ester 40 mg/kg
  antitumor effect: Significant antitumor effect
[8]; NCr female mice, intraperitoneal, 150 mg/kg once weekly times 2 vs 40 mg/kg every third day times 5
  antitumor activity, comparison of schedules: similar
[9]; every 3 days times 5, daily times 5, once weekly times 2, all tested schedules
  antitumor activity: High antitumor activity
[9]; three doses per schedule
  dose dependence of activity: dose dependent
[10]
  platinum adducts in DNA, oxaliplatin combined vs oxaliplatin alone: increase of platinum adducts
